Results reported in patent US6831039B1, “3-(heterocyclyl)-substituted benzolpyrazols” (BASF Aktiengesellschaft, priority 1998, dated 2004).

Legend:
Assay in all cases: Greenhouse post-emergence herbicidal test
barnyard grass = type: in vivo, Echinochloa crus galli; details: 0.5 or 0.25 kg/ha
Source text: (§1) The seeds of the test plants were sown separately for each species. For the post-emergence treatment, the test plants were first grown to a height of 3 to 15 cm, depending on the plant habit, and only then treated with the active compounds which had been suspended or emulsified in water. The test plants were, for this purpose, either sown directly and grown in the same containers, or they were first grown separately as seedlings and transplanted into the test containers a few days prior to treatment. The application rate for the post-emergence treatment was 0.5, 0.25, 0.125 or 0.0625 kg of a.s. (active substance)/ha. Depending on the species, the plants were kept at 10-25° C. or 20-35° C. The test period extended over 2 to 4 weeks. During this time, the plants were tended, and their response to the individual treatments was evaluated. The evaluation was carried out using a scale from 0 to 100. 100 means no emergence of the plants, or complete destruction of at least the aerial parts and 0 means no damage, or normal course of growth. The plants used in the greenhouse experiments were of the following species: [table]

lamb's-quarters = type: in vivo, Chenopodium album; details: 0.5 or 0.25 kg/ha
Source text: as §1

black nightshade = type: in vivo, Solanum nigrum; details: 0.5 or 0.25 kg/ha
Source text: as §1

green foxtail = type: in vivo, Setaria viridis
Source text: as §1

pigweed = type: in vivo, Amaranthus retroflexus; details: 0.25 or 0.125 kg/ha
Source text: as §1

lady's-thumb = type: in vivo, Polygonum persicaria; details: 0.25 or 0.125 kg/ha
Source text: as §1

wild oat = type: in vivo, Avena fatua; details: 0.25 or 0.125 kg/ha
Source text: as §1

white mustard = type: in vivo, Sinapis alba; details: 0.25 or 0.125 kg/ha
Source text: as §1

Cc1nn(C(C)(C)C)c(O)c1C(=O)c1ccc(S(C)(=O)=O)c(C2=NOCC2)c1C [Compound 2.8]
very good: post-emergence control of harmful plants (barnyard grass) | post-emergence control of harmful plants (lamb's-quarters) | post-emergence control of harmful plants (black nightshade) | post-emergence control of harmful plants (green foxtail; 0.5 or 0.25 kg/ha)

Cc1c(C(=O)c2cnn(C(C)C)c2O)ccc(S(C)(=O)=O)c1C1=NOCC1 [Compound 2.9]
very good: post-emergence action on grasses and weeds (pigweed) | post-emergence action on grasses and weeds (lady's-thumb) | post-emergence action on grasses and weeds (green foxtail; 0.25 or 0.125 kg/ha) | post-emergence action on grasses and weeds (wild oat) | post-emergence action on grasses and weeds (white mustard)
